According to patent publication US20100119499A1, “STILBENE-BASED COMPOSITIONS AND METHODS OF USE THEREFOR” (priority 2009, published 2010):
Read-outs that look alike come from different tables or passages of the source.

Legend:
[1] = inhibition of citronellal thermo-oxidation; conditions: converted value in brackets
DPPH radical scavenging = conditions: converted value in brackets
[2] = total reactive antioxidant potential against ABAP-derived peroxyl radicals; conditions: converted value in brackets
humans = test: oral pterostilbene combined with nutrients, athletic performance in humans; assay type: in vivo, human
Description: Additional work described herein addressed the effects of combining oral pterostilbene with various nutrients on athletic performance. Specifically, oral pterostilbene was administered with creatine supplements, and the effect of this combination was compared with the effect of creatine supplements alone.
The addition of exogenous dietary carbohydrates such as glucose, isolmaltulose, leucrose, trehalose, trehalulose, amylose, ribose, and maltodextrin to the creatine-containing supplement allowed for even higher pterostilbene dosing (up to 25 mg of oral pterostilbene) and produced an even more pronounced, immediate increase in athletic performance without the onset of hypoglycemia.
While not wishing to be bound by any particular theory, the inventors believe that pterostilbene increases or otherwise effects a change in the rate and quantity of the transfer of these nutrients from the blood plasma into the tissues and organs. Such dietary nutrients include, but are not limited to, creatine and its salts esters, amides and chelates, creatinol-O-phosphate, branched chain amino acids (leucine, isoleucine, valine) and their salts, esters, amides and chelates, branched chain keto-acids including, but not limited to ketoisocaproate and its salts, other ergogenic, performance-enhancing amino acids including, but not limited to, taurine, beta-alanine, arginine, ornithine, aspartic acid, glutamine, glutaric acid, agmatine, citrulline, norvaline, glycine, cysteine and their salts, ester, amides and chelates, performance enhancing dipeptides including, but not limited to, carnitine, anserine and carnosine and their salts and esters and proteins that are known to contain dipeptides such as whey or soy or egg protein isolates or concentrates or any combination of these non-carbohydrate based dietary nutrients.
Further, the addition and oral consumption of one or more exogenous dietary carbohydrates, including but not limited to rice oligodextrin, amylose, amylopectin, glucose, maltodextrin, maltose, isolmaltulose, leucrose, trehalulose, ribose, trehalose, and/or fructose in conjunction with pterostilbene and a non-carbohydrate based dietary nutrient or nutrients simultaneously further increases the athletic performance-enhancing effects of pterostilbene and the non-carbohydrate dietary nutrient(s) by up to 50% and also increases the tolerability of pterostilbene in humans by up to 50%.

rats = conditions: doses 10 mg/kg up to 40 mg/kg bodyweight; cited from earlier work
normal human fibroblasts = conditions: cited from earlier work
healthy, adult humans = test: oral pterostilbene in humans, whole blood glucose by finger prick glucometer; assay type: in vivo
Description: In work described herein using pterostilbene orally in humans (supplied by Chromadex, 10005 Muirlands Boulevard, Suite G, Irvine, Calif. 92618, USA) dosing of oral pterostilbene was initially started at a lower dose than the calculated HED, with the intent of titrating the dose up as needed.
The test subject was immediately treated with oral glucose and other carbohydrates and recovered without other incident. […] At oral dosing above 0.165 mg/kg (actual dose tested 20 mg) pterostilbene is capable of inducing profound hypoglycemia (e.g., whole blood glucose at or below 55 mg/dL) and the side effects associated with this condition. Accordingly, at the doses predicted by the FDA/CDER formula, oral administration of pterostilbene to humans would likely be fatal.

[3] = ABAP-derived peroxyl radicals; cited from earlier work
[4] = tested on: streptozotocin-induced hyperglycemic rats; conditions: cited from earlier work
MAO leukemia cell line = conditions: relative to cis-resveratrol; cited from earlier work
[5] = 5 mg oral (0.0486 mg/kg) added to creatine-containing liquid supplement vs supplement alone, one healthy person
[6] = pterostilbene plus non-carbohydrate nutrient(s) plus exogenous dietary carbohydrates, oral

Row | SMILES | EQ value, inhibition of cintronellal thermo-oxidation [1] [mg/mL] | EC50, scavenging of DPPH radicals (DPPH radical scavenging) [µg/mL] | total reactive antioxidant potential [2] [mg/mL] | effect on athletic performance (humans; 3 mg to 20 mg added to a creatine-containing supplement) | immediate increase in anaerobic work capacity (humans; [5]) [%] | immediate increase in maximal exertion power (humans; [5]) [%] | oral dose possible without the onset of hypoglycemia (humans; human, in vivo, po) | further increase of athletic performance-enhancing effects by added carbohydrates (humans; [6]) | increase of tolerability in humans by added carbohydrates (humans; [6]) | adverse effects (rats) | reduction of thiobarbituric acid reactive substances (TBARS) production (normal human fibroblasts) [%] | drop of whole blood glucose level (healthy, adult humans; 30 mg oral single dose (about 0.248 mg/kg), one healthy person, within fifteen minutes) | oral dose above which profound hypoglycemia and its side effects are induced (healthy, adult humans; profound hypoglycemia e.g. whole blood glucose at or below 55 mg/dL, actual dose tested 20 mg) | total reactive antioxidant potential [3] [mM] | lowering of blood glucose level [4] [%] | ability to induce apoptosis compared to cis-resveratrol (MAO leukemia cell line)
1 | COc1cc(/C=C/c2ccc(O)cc2)cc(OC)c1 [pterostilbene, trans-3,5-dimethoxy-4′-hydroxystilbene] | ~90.9 | ~7680 | ~60.7 | improves athletic performance dramatically | ~12 | ~8 | up to 25 mg | up to 50% | up to 50% | no adverse effects noted | 61 | about 50 mg/dL | above 0.165 mg/kg | 237 ± 58 | 42 | –
2 | Oc1ccc(/C=C/c2cc(O)cc(O)c2)cc1 [trans-reseveratrol] | – | – | – | – | – | – | – | – | – | – | – | – | – | – | – | ten times more potent
